Reference: paper PMC8341974 (RSC Chemical Biology, 2021)
Blank lines part the entries; values can stand above or below the compound they belong to.

Key:
SIRT1 = target: T1, SIRT1 (Homo sapiens, UniProt Q96EB6); assay: End-point SIRT1 deacetylation inhibition assay; assay type: biochemical
T1 sequence (Q96EB6 193-741): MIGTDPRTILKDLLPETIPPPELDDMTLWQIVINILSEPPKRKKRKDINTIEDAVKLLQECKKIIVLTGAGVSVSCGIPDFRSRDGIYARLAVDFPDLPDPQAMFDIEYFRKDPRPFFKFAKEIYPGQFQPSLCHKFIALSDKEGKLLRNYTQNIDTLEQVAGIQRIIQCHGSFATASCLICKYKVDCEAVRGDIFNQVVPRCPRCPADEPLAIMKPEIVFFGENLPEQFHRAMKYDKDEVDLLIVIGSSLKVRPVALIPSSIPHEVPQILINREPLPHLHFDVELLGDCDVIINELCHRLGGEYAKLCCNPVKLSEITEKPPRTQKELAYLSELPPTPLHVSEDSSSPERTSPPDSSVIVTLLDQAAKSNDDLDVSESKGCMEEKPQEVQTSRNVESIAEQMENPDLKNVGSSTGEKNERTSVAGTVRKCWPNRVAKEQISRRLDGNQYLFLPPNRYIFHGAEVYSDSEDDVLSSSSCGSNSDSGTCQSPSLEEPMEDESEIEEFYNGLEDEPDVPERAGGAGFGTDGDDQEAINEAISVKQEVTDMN

SIRT2 [1] = target: T2, SIRT2 (Homo sapiens, UniProt Q8IXJ6); assay: Continuous trypsin-coupled SIRT2 inhibition assay; assay type: biochemical; conditions: from dependence of kobs on inhibitor concentration
T2 sequence (Q8IXJ6 50-356): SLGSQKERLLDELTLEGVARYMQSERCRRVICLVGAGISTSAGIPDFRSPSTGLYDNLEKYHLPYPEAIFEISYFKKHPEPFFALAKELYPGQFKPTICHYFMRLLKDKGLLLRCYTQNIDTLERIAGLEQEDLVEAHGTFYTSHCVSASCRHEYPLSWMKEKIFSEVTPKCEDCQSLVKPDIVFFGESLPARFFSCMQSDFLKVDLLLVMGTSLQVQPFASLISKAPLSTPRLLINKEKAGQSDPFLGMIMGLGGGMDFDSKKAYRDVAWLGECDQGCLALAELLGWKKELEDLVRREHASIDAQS

SIRT6 = SIRT6 (Homo sapiens, UniProt Q8N6T7); assay: End-point SIRT6 inhibition assay; assay type: biochemical; conditions: 10 µM inhibitor; SIRT6 600 nM; ETDKmyr 50 µM as substrate; NI = no inhibition
SIRT2 [2] = target: T2, SIRT2; assay: biochemical; assay type: biochemical; conditions: for %inhibition SIRT2, QPKKac: 100 µM inhibitor, QPKKac 50 µM, NI = no inhibition
[3] = Serum stability in human male serum; assay type: in vitro ADME; conditions: 37 °C, up to 24 h
SIRT3 = target: T3, SIRT3 (Homo sapiens, UniProt Q9NTG7); assay: biochemical; assay type: biochemical
T3 sequence (Q9NTG7 102-399): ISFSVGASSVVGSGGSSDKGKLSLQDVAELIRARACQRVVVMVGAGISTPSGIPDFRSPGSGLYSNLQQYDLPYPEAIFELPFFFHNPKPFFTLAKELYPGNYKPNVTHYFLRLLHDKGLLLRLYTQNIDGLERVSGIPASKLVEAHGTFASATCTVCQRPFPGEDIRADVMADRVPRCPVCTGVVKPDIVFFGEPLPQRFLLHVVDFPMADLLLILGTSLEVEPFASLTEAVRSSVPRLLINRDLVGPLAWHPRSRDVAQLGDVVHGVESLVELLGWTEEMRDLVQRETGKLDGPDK

[4] = tested on: acetylated α-tubulin in MCF-7 cells; assay: Immunofluorescence of acetylated α-tubulin in MCF-7 cells; assay type: cell-based, human; conditions: MCF-7, 6 h; 26 5 μM, 26-D 25 μM, TSA 5 μM

SIRT6, sequence (Q8N6T7 whole entry): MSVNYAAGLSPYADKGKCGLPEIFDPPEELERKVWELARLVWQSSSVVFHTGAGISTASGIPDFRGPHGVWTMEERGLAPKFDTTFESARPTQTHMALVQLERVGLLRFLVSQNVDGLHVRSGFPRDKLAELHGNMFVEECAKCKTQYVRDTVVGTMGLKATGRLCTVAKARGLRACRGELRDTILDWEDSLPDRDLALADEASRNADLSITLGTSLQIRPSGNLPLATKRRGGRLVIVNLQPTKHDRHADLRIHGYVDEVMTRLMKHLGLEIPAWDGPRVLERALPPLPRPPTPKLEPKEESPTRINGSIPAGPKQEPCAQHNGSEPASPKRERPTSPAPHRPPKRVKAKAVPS

SMILES: CC(/C=C/C(=O)NO)=C\[C@@H](C)C(=O)c1ccc(N(C)C)cc1 [TSA, Trichostatin A]
acetylated α-tubulin level by immunofluorescence (in words) [4]: hyperacetylation of α-tubulin throughout the entire cell

SMILES: CCCCCCCCCCCCNC(=O)CCCCC[C@H](NC(=O)OCc1ccccc1)C(=O)N[C@@H](Cc1c[nH]c2ccccc12)C(=O)NC(C)C [Compound 5]
%inhibition SIRT2, QPKKac (SIRT2 [2]): only limited inhibition

Now from value to compound, other results behind:

IC50 (SIRT1): 370 ± 70 nM
mechanism of slow-binding inhibition (SIRT2 [1]): mechanism B
%-inhibition SIRT6 (SIRT6): did not inhibit
IC50 (SIRT2 [2]; IC50 SIRT2, QPKKac, given as class word, QPKKac 50 μM, NAD+ 500 μM, SIRT2 100 nM): < 100 nM
IC50 (SIRT3): 1900 ± 300 nM
SMILES: CCCCCCCCCCCCNC(=S)NCCCC[C@H](NS(C)(=O)=O)C(=O)N[C@@H](C)C(=O)N[C@@H](CCCNC(=N)N)C(N)=O [Compound 25]
degradation in human serum (in words) [3]: almost fully degraded in less than two hours

degradation in human serum (in words) [3]: rapidly degraded
%inhibition SIRT3, QPKKac (SIRT3; 100 µM inhibitor, QPKKac 50 µM, NI = no inhibition): <50% [100 μM]
SMILES: CN(C)CCCCC(=O)Nc1ccc(NC(=S)NC(=O)c2ccc(C(C)(C)C)cc2)cc1 [Tenovin-6, reference compound]

%inhibition SIRT2, QPKKac (SIRT2 [2]): only limited inhibition
SMILES: CCCCCCCCCCCCCC(=O)NNCCC[C@H](NC(=O)OCc1ccccc1)C(=O)N[C@@H](Cc1c[nH]c2ccccc12)C(=O)NC(C)C [Compound 4]
